Measured values as given in article PMC9541495, “Understanding the interaction of 14‐3‐3 proteins with hDMX and hDM2: a structural and biophysical study” (The Febs Journal, 2022).
Where a SMILES comes first, the peptide text is derived from it. [ ]: non-standard residue; d: D form. pS = N[C@@H](COP(=O)(O)O)C(=O)O

How the values were obtained:
[1] = biological target: T1, 14‐3‐3η (Homo sapiens, UniProt Q04917); experiment: Fluorescence anisotropy direct titration, 14‐3‐3η; type: binding
T1 construct: full‐length proteins were concentrated by centrifugation, rebuffered in HEPES buffer; made in house; host or cells: E. coli BL21(DE3)
T1 sequence (Q04917 1-246): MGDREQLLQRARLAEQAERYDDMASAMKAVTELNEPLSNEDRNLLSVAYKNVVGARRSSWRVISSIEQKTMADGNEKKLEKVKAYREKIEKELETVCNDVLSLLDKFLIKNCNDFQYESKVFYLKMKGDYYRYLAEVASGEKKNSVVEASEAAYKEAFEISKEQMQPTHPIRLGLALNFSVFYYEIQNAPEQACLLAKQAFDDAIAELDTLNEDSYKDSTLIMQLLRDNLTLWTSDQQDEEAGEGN
Protocol: All assays were performed in 384 well plates (each experiment was run in triplicates) and data were collected by Perkin Elmer EnVision 2013 plate reader with excitation at 480 nm (30 nm bandwidth), polarised dichroic mirror at 505 nm and emission at 535 nm (40 nm bandwidth, S and P polarised). Experiments were carried out in HBS buffer (10 mM HEPES, 150 mM NaCl, pH 7.4) + 0.1% Tween 20 + 0.1% BSA). A ½ fold dilution series was performed in the titration, with plates read after 30 min, 4 h and 20–24 h. […] Collected data were processed in Microsoft Excel using the equations below. Total intensity I and anisotropy r were calculated using Equations 1 and 2 for each well. Average anisotropy was plotted against protein concentration using OriginPro and a logistic curve was fitted to give r min and r max. Using Equation 3 anisotropy was converted into fraction bound and multiplied by peptide concentration to be fitted in Origin using Equation 5 to obtain K d values.

[2] = biological target: T1, 14‐3‐3η; experiment: Isothermal titration calorimetry, peptide into 14‐3‐3η; type: binding; conditions: 25 °C, HEPES pH 7.5
Protocol: (§1) […]
Moreover, such experiments provide thermodynamic data and as a label‐free method require no immobilization/functionalization of any of the binding partners. Here data were obtained by titration of the peptide into 14‐3‐3η protein (Fig. 2D,E and Fig. S7).
Isothermal titration calorimetry experiments were carried out on a MicroCal iTC200 in HBS buffer at 25°C (25 mM HEPES pH 7.5, 100 mM NaCl, 10 mM MgCl2, 0.5 mM TCEP). Peptides ([…]) in the syringe were titrated into a cell containing 14‐3‐3η ([…]). Data were fitted using MICROCAL software (Northampton, MA, USA) to give binding constant (K d), enthalpy (ΔH), entropy (ΔS) and binding stoichiometry (n).

[3] = biological target: T1, 14‐3‐3η; experiment: Analytical ultracentrifugation (sedimentation velocity) of 14‐3‐3η with peptide; conditions: AUC‐SV; 14 μM 14‐3‐3η, protein : peptide 1 : 1 and 1 : 0.5; 10 mM HEPES, 150 mM NaCl, pH 7.4; 25 °C
Description: The 1 : 1 stoichiometry between the doubly phosphorylated peptides and 14‐3‐3 contrasts with previously reported work, although it may be that the length and/or accessible conformation of the hDMX and hDM2 peptides are incompatible with the simultaneous engagement of both 14‐3‐3 protomers in the dimeric structure. To further explore this behaviour and understand the basis of cooperativity and affinity enhancement we performed additional experiments. To exclude the possible formation of higher‐order oligomers (e.g. 14‐3‐3 tetramers held together by two peptides bridging two dimers), an analytical ultracentrifugation experiment was performed. The 14‐3‐3η (at the concentration of 14 μM, approximately corresponding to the second binding events observed in FA, Fig. 2C) and hDMX335‐373 ^pSer342/pSer367 peptide in two different concentration ratios (1 : 1 and 1 : 0.5, protein vs. peptide) were analysed. […] The second binding event observed only in fluorescence anisotropy experiments, may represent a further non‐specific binding event or an interaction linked to 14‐3‐3 dimerization and will be investigated in future work.
AUC‐SV experiments were performed using a Beckman Coulter Optima XL‐I ultracentrifuge. […] The diffusion‐deconvoluted sedimentation coefficient distributions c(s) were calculated using the SEDFIT program (Bethesda, MD, USA). […]

[4] = biological target: T1, 14‐3‐3η; experiment: Surface plasmon resonance on immobilized 14‐3‐3η; type: binding; conditions: multicycle kinetic format, Langmuir model, 25 °C
Protocol: as §1
Experiments were performed at 25 °C using a Biacore T200 instrument (GE Healthcare, Buckinghamshire, UK). For immobilization, the running buffer was HBS buffer (HEPES, NaCl, Tween‐20, pH 7.4). 14‐3‐3η was immobilized on an NTA sensor chip (Series S Sensor Chip GE Healthcare) using NTA reagent and Biacore Amine Coupling Kit. Briefly, 14‐3‐3η was diluted to 0.2 mg·mL^−1 and 200 µL was injected over a chip surface that had been activated with an injection of Ni^2+, followed by 140 µL of 1 : 1 NHS/EDC. A 30 µL of 0.5 M ethanolamine was then injected to cap the excess free amine groups. […] Then, 20 µL of these solutions were injected over a 14‐3‐3η immobilized surface for 1 min at the […] flow rate, followed by a 4 min regeneration period with HBS buffer. Kinetics and the binding affinity were calculated using the BIACORE evaluation software (Buckinghamshire, UK). Standard dose–response curves were fitted by plotting RUs against the peptide concentration.

[5] = tested on: all isoforms of 14‐3‐3; experiment: Fluorescence anisotropy assays with all isoforms of 14‐3‐3 (result in words); type: binding, human; conditions: FAM tracer peptide 50 nM, 0.1 nM - 300 µM protein, 10 mM HEPES, 150 mM NaCl, 0.1% Tween 20, 0.1% BSA pH 7.4; n = 3
Description: 14‐3‐3 proteins were titrated against a constant concentration of the tracer resulting in an increase of anisotropy upon engaging 14‐3‐3 proteins (Fig. 2A–C for 14‐3‐3 binding hDMX sequences and Figs S4–S6, for 14‐3‐3 binding hDM2 sequences, non‐binding sequence, and unphosphorylated controls). A noteworthy feature of the data is that different maximum anisotropy levels were observed between hDMX or hDM2 peptides and 14‐3‐3 isoforms, indicating different diffusion properties of the fluorophore when bound to the different 14‐3‐3 isoforms. […]
All assays were performed in 384 well plates (each experiment was run in triplicates) and data were collected by Perkin Elmer EnVision […] plate reader with excitation at 480 nm (30 nm bandwidth), polarised dichroic mirror at 505 nm and emission at 535 nm (40 nm bandwidth, S and P polarised). […] A ½ fold dilution series was performed in the titration, with plates read after 30 min, 4 h and 20–24 h. […] Total intensity I and anisotropy r were calculated using Equations 1 and 2 for each well. […]
Figure S4. Fluorescence anisotropy assays for the hDM2 peptides. […]
Figure S5. Fluorescence anisotropy assays for the hDMX144-158pThr151 peptide with all isoforms of 14-3-3. […]

fold higher affinity Kd1 of doubly phosphorylated peptide compared to singly phosphorylated peptide ([1]; FA, 14‐3‐3η, compared to hDM2_160‐171 ^pSer166 (hDM2 peptide) or hDMX361‐374 ^pSer367 (hDMX peptide)) [fold] | ∆G (ITC), 14‐3‐3η ([2]; acetyl labelled peptides) [kcal/mol] | n (binding stoichiometry, ITC) ([2]; acetyl peptides, 14‐3‐3η) | ‐T∆S (ITC) ([2]; acetyl peptides, 14‐3‐3η) [kcal/mol] | ∆H (ITC) ([2]; acetyl peptides, 14‐3‐3η) [kcal/mol] | sedimentation coefficient of 14‐3‐3η with peptide vs protein alone (in words) [3] | koff [4] [s⁻¹] | kon [4] [M⁻¹ s⁻¹] | Kd ([1]; FA direct titration, FAM‐Ahx tracer peptide 50 nM, pH 7.4, 1:1 fit, n = 3, read-out: K d, 14‐3‐3η) [nM] | Compound | FA response / affinity with 14‐3‐3 proteins, all isoforms (in words) [5]
3 | -10.7 | 0.94 | -5.4 | -5.28 ± 0.17 | remained unchanged | 0.0048 | 1.51e+06 | – | CC[C@H](C)[C@H](NC(=O)[C@H](CC(=O)O)NC(=O)[C@H](CO)NC(=O)[C@@H](NC(=O)[C@H](COP(=O)(O)O)NC(=O)[C@H](CC(C)C)NC(=O)[C@H](CO)NC(=O)[C@H](Cc1c[nH]cn1)NC(=O)[C@@H](NC(=O)[C@H](CC(C)C)NC(=O)[C@H](CCCCN)NC(=O)[C@H](CO)NC(C)=O)[C@@H](C)O)[C@@H](C)O)C(=O)N[C@H](C(=O)N[C@@H](C)C(=O)N[C@H](C(=O)N1CCC[C@H]1C(=O)N[C@@H](CCC(=O)O)C(=O)N[C@@H](CCCCN)C(=O)N[C@@H](CCC(=O)O)C(=O)N[C@@H](CC(N)=O)C(=O)N[C@@H](CCC(=O)O)C(=O)NCC(=O)N[C@@H](CC(N)=O)C(=O)N[C@@H](CC(=O)O)C(=O)N[C@H](C(=O)N1CCC[C@H]1C(=O)N[C@@H](CC(=O)O)C(=O)N[C@@H](CS)C(=O)N[C@@H](CCCNC(=N)N)C(=O)N[C@@H](CCCNC(=N)N)C(=O)N[C@H](C(=O)N[C@H](C(=O)N[C@@H](COP(=O)(O)O)C(=O)N[C@@H](C)C(=O)N1CCC[C@H]1C(=O)N[C@H](C(=O)N[C@H](C(=O)N[C@@H](CCCNC(=N)N)C(=O)N1CCC[C@H]1C(N)=O)C(C)C)C(C)C)[C@@H](C)CC)[C@@H](C)O)C(C)C)[C@@H](C)CC)[C@@H](C)O [hDMX335‐373 ^pSer342/pSer367] | –
– | – | – | – | – | – | 0.121 | 389000 | 98.8 ± 4.6 | CC[C@H](C)[C@H](NC(=O)[C@@H](NC(=O)[C@H](CCCNC(=N)N)NC(=O)[C@H](CCCNC(=N)N)NC(=O)[C@H](CS)NC(=O)[C@H](CC(=O)O)NC(C)=O)[C@@H](C)O)C(=O)N[C@@H](COP(=O)(O)O)C(=O)N[C@@H](C)C(=O)N1CCC[C@H]1C(=O)N[C@H](C(=O)N[C@H](C(=O)N[C@@H](CCCNC(=N)N)C(=O)N1CCC[C@H]1C(=O)N[C@@H](CCCCN)C(N)=O)C(C)C)C(C)C [hDMX361‐374 ^pSer367] (Ac-DCRRTI[pS]APVVRPK-NH2) | –
– | – | – | – | – | – | – | – | – | X‐STSRKRT pT EDDIPTL‐NH2 [hDMX144‐158 ^pThr151, hDMX‐derived phosphopeptide, N‐terminal acetyl (ITC, SPR, crystallography) or FAM‐Ahx (FA tracer), C‐terminal amide] | no response
